Literature values as cited in patent publication US20210113461A1, “Methods of Treating Fungal Infections” (CIPLA TECHNOLOGIES LLC, priority 2018, published 2021).
Like-named read-outs stand apart in the source and are kept apart here.

Assays:
[1] = oral solution

In the case of `CCC(C)n1ncn(-c2ccc(N3CCN(c4ccc(OCC5COC(Cn6cncn6)(c6ccc(Cl)cc6Cl)O5)cc4)CC3)cc2)c1=O` (centres unmarked) [Itraconazole, itraconazole], the “half-life at steady state” value [1] is listed as 39.7 ± 13 h, the “steady-state AUC0-24h under fasted conditions as % of exposure under fed conditions” value [1] is listed as 131±30% and the “mean AUC0-24h at steady-state” value ([1]; 200 mg daily dose, fasted) is listed as 29,271±10,285 ng·h/mL. For the same compound, the “mean Cmax at steady-state” value ([1]; 200 mg daily dose, fasted) was 1,963±601 ng/mL, the “mean tmax at steady-state” value ([1]; 200 mg daily dose, fasted) was 2.5 ± 0.8 h and the “increase of bioavailability under fasted conditions” value ([1]; healthy volunteers) was 30%. For the same compound, the “bound by plasma protein” value (plasma protein; capsules) was 99.6% and the “bound by plasma protein” value (plasma protein; oral solution) was 99.8%.
